24 molecules from US20070155764A1, “NOVEL SUBSTITUTED PYRIMIDINYLOXY UREAS USEFUL AS INHIBITORS OF PROTEIN KINASES” (KALYPSYS, INC., priority 2005, published 2007) can be followed below.

By IC50 is commonly meant the point on the concentration scale where inhibition reaches its midpoint.

Bounds are passed on as bounds.

Format in all cases: biochemical
For test [1], the target named is T1, human B-Raf protein kinase (Homo sapiens, UniProt P15056).
T1 construct: GST (N); purchased Upstate Inc. 14-530 (B-Raf); 14-420 (Mek1)
Put plainly: In vitro B-Raf/Mek1 composite kinase assay. The settings on record: recombinant GST-tagged human B-Raf (Δ1-415) with inactive Mek1, 2 μM ATP. An outline of the steps: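 Luminescent ATP-depletion assay using recombinant N-terminal GST-tagged human B-Raf (Δ1-415, 1 ng/well) in MOPS pH 7.2 buffer with 10 mM MgCl2. Compounds were preincubated 15 min at about 22° C, then the reaction ran 2 h before PKLight readout. Efficacy is expressed as percentage of positive-control (Bay 43-9006) activity.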

The target in test [2] is T2, VEGFR2 kinase (Homo sapiens, UniProt P35968).
T2 construct: purchased Invitrogen Inc PV3660
Put plainly: In vitro VEGFR2 kinase assay. The following applies: ADP Quest assay, poly Glu:Tyr substrate, 60 μM ATP. The method in brief:
(§1)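 Compound was preincubated 10 min at ~22 °C with 20 ng VEGFR2 or 25 ng PDGFRβ, then poly Glu:Tyr (4:1) substrate (0.25 μg) with 60 μM ATP (in added buffer) was reacted 2 h at 30 °C. ADP Quest resorufin fluorescence was read (ex 530/em 580) after 30 min. Efficacy is expressed as percent of positive-control (Bay 43-9006) activity, with DMSO as negative control.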

Test [3] concerns the target T3, PDGFRβ kinase (Homo sapiens, UniProt P09619).
T3 construct: purchased Invitrogen Inc. P3082
Description: In vitro PDGFRβ kinase assay. The settings on record: ADP Quest assay, poly Glu:Tyr substrate, 60 μM ATP. The method in brief:
as §1

T1 sequence (P15056 416-766): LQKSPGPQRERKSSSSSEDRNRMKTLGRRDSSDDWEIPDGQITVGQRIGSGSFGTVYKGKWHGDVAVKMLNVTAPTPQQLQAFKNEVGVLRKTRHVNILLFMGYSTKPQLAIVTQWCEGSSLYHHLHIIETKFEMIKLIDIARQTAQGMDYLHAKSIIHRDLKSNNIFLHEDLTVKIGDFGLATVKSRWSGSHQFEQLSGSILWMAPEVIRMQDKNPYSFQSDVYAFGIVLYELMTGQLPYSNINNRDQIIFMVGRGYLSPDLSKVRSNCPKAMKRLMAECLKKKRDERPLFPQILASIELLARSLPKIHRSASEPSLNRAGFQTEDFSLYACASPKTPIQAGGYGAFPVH
T3 sequence (P09619 33-1106): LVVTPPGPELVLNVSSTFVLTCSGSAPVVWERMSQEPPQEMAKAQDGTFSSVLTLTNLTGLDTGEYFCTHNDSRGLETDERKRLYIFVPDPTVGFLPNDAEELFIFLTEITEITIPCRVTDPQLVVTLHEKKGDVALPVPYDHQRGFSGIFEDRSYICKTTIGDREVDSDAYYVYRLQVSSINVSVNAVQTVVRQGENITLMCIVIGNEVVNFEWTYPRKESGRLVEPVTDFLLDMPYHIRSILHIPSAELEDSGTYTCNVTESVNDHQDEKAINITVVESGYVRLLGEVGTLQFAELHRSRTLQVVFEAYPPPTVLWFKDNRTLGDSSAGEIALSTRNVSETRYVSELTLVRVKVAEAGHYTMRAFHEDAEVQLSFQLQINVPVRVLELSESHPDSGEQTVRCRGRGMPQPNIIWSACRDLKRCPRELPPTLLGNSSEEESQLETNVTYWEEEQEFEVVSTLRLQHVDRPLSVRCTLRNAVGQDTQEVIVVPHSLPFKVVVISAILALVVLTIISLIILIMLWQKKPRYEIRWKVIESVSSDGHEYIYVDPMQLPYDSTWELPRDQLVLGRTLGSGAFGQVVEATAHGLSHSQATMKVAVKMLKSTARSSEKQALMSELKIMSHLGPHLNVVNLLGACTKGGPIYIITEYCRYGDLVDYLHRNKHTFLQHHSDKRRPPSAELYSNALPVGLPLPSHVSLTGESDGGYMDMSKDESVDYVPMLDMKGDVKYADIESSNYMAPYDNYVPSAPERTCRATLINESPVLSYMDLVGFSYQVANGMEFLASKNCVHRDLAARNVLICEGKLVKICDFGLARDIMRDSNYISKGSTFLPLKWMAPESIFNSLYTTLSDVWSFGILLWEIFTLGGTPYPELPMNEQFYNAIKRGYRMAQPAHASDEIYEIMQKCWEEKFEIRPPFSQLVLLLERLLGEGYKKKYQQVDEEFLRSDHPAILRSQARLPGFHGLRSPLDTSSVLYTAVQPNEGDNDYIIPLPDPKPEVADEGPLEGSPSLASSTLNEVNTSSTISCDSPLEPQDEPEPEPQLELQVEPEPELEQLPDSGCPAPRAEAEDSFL
T2 sequence (P35968 20-1356): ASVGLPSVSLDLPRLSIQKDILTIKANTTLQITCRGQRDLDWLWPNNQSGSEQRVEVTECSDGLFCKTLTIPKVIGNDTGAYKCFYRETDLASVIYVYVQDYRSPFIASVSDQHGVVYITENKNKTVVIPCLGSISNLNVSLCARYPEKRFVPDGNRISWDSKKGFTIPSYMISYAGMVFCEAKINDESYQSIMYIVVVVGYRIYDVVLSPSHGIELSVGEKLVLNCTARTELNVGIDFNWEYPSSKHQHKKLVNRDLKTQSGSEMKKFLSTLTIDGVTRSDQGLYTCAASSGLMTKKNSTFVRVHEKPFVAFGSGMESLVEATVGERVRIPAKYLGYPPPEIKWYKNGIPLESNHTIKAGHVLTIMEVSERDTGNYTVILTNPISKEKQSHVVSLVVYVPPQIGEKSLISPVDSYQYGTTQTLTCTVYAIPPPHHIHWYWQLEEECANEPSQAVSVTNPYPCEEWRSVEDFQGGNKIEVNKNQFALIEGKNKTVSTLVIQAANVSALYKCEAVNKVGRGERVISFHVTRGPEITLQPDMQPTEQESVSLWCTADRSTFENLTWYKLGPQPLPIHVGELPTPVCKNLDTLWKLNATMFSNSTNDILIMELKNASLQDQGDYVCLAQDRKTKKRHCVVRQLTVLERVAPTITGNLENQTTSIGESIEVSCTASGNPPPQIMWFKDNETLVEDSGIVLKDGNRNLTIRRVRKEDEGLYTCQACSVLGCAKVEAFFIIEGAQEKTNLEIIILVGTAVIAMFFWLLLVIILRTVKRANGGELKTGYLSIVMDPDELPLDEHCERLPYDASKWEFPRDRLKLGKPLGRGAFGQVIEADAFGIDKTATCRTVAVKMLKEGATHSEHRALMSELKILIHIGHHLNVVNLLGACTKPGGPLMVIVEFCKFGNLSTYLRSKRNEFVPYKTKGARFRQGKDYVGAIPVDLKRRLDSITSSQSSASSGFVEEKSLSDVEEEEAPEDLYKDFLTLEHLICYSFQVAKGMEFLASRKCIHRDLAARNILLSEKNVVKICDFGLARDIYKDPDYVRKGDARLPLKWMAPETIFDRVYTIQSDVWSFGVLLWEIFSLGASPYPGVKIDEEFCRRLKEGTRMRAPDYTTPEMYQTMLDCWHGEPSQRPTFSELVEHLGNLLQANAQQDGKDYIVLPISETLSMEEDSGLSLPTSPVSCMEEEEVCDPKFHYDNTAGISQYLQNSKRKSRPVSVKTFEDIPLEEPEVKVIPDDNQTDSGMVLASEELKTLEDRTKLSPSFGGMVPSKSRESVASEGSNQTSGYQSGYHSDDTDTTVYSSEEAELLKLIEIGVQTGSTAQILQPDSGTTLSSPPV

As to `Cn1cc(-c2nccc(Oc3cccc(NC(=O)Nc4ccc(C(F)(F)F)cc4)c3)n2)cn1` [Example 80, 1-(3-(2-(1-Methyl-1H-pyrazol-4-yl)pyrimidin-4-yloxy)phenyl)-3-(4-(trifluoromethyl)phenyl)urea], the IC50 in test [1], in test [2] and in test [3] was ≤ 10 µM each time.
On to `CCOC(=O)c1coc(-c2cc(Oc3cccc(NC(=O)Nc4ccc(Cl)c(C(F)(F)F)c4)c3)ncn2)n1` [Example 81, Ethyl 2-(6-(3-(3-(4-chloro-3-(trifluoromethyl)phenyl)ureido)phenoxy)pyrimidin-4-yl)oxazole-4-carboxylate], for which the IC50 in test [1], in test [2] and in test [3] was ≤ 10 µM in each case.
Regarding `NC(=O)c1coc(-c2cc(Oc3cccc(NC(=O)Nc4ccc(Cl)c(C(F)(F)F)c4)c3)ncn2)n1` [Example 82, 2-(6-(3-(3-(4-Chloro-3-(trifluoromethyl)phenyl)ureido)phenoxy)pyrimidin-4-yl)oxazole-4-carboxamide], the IC50 in test [1], in test [2] and in test [3] was ≤ 10 µM each time.
As for `Cn1cc(-c2nccc(Oc3cccc(NC(=O)Nc4cccc(OC(F)(F)F)c4)c3)n2)cn1` [Example 83, 1-(3-(2-(1-Methyl-1H-pyrazol-4-yl)pyrimidin-4-yloxy)phenyl)-3-(3-(trifluoromethoxy)phenyl)urea], the IC50 in test [1], in test [2] and in test [3] was ≤ 10 µM throughout.
With `Cn1cc(-c2nccc(Oc3cccc(NC(=O)Nc4cc(C(F)(F)F)cc(C(F)(F)F)c4)c3)n2)cn1` [Example 84, 1-(3,5-Bis(trifluoromethyl)phenyl)-3-(3-(2-(1-methyl-1H-pyrazol-4-yl)pyrimidin-4-yloxy)phenyl)urea], the IC50 in test [1], in test [2] and in test [3] was ≤ 10 µM in each case.
On to `O=C(Nc1cccc(Oc2cc(-c3ncc[nH]3)ncn2)c1)Nc1ccc(Cl)c(C(F)(F)F)c1` [Example 85, 1-(3-(6-(1H-Imidazol-2-yl)pyrimidin-4-yloxy)phenyl)-3-(4-chloro-3-(trifluoromethyl)phenyl)urea], for which the IC50 in test [1], in test [2] and in test [3] was ≤ 10 µM each time.
With `C#Cc1cccc(NC(=O)Nc2cccc(Oc3cc(-c4cnn(C)c4)ncn3)c2)c1` [Example 86, 1-(3-Ethynylphenyl)-3-(3-(6-(1-methyl-1H-pyrazol-4-yl)pyrimidin-4-yloxy)phenyl)urea], the IC50 in test [1], in test [2] and in test [3] was ≤ 10 µM each time.
Consider `Cn1cc(-c2nccc(Oc3ccc(NC(=O)Nc4ccc(Cl)c(C(F)(F)F)c4)c(F)c3)n2)cn1` [Example 88, 1-(4-Chloro-3-(trifluoromethyl)phenyl)-3-(2-fluoro-4-(2-(1-methyl-1H-pyrazol-4-yl)pyrimidin-4-yloxy)phenyl)urea], for which the IC50 in test [1], in test [2] and in test [3] was ≤ 10 µM throughout.
Consider `O=C(Nc1ccc(C(F)(F)F)cc1)Nc1cccc(Oc2cc(-c3nnco3)ncn2)c1` [Example 89, 1-(3-(6-(1,3,4-Oxadiazol-2-yl)pyrimidin-4-yloxy)phenyl)-3-(4-(trifluoromethyl)phenyl)urea], for which the IC50 in test [1], in test [2] and in test [3] was ≤ 10 µM each time.
Regarding `Cn1cc(-c2cc(Oc3ccc(F)c(NC(=O)Nc4ccc(C(F)(F)F)cc4F)c3)ncn2)cn1` [Example 90, 1-(2-Fluoro-4-(trifluoromethyl)phenyl)-3-(2-fluoro-5-(6-(1-methyl-1H-pyrazol-4-yl)pyrimidin-4-yloxy)phenyl)urea], the IC50 in test [1], in test [2] and in test [3] was ≤ 10 µM each time.
For `Cn1cc(-c2cc(Oc3cccc(NC(=O)Nc4ccc(C(F)(F)F)cc4F)c3)ncn2)cn1` [Example 91, 1-(2-Fluoro-4-(trifluoromethyl)phenyl)-3-(3-(6-(1-methyl-1H-pyrazol-4-yl)pyrimidin-4-yloxy)phenyl)urea], the IC50 in test [1], in test [2] and in test [3] was ≤ 10 µM throughout.
Regarding `Cn1cc(-c2cc(Oc3ccc(NC(=O)Nc4ccc(Cl)c(C(F)(F)F)c4)c(F)c3)ncn2)cn1` [Example 92, 1-(4-Chloro-3-(trifluoromethyl)phenyl)-3-(2-fluoro-4-(6-(1-methyl-1H-pyrazol-4-yl)pyrimidin-4-yloxy)phenyl)urea], the IC50 in test [1], in test [2] and in test [3] was ≤ 10 µM throughout.
Take `Cn1cc(-c2nccc(Oc3ccc(NC(=O)Nc4cccc(C(F)(F)F)c4)c(F)c3)n2)cn1` [Example 93, 1-(2-Fluoro-4-(2-(1-methyl-1H-pyrazol-4-yl)pyrimidin-4-yloxy)phenyl)-3-(3-(trifluoromethyl)phenyl)urea]: the IC50 in test [1], in test [2] and in test [3] was ≤ 10 µM throughout.
As to `COc1ccc(C(F)(F)F)cc1NC(=O)Nc1cccc(Oc2cc(-c3cnn(C)c3)ncn2)c1` [Example 94, 1-(2-Methoxy-5-(trifluoromethyl)phenyl)-3-(3-(6-(1-methyl-1H-pyrazol-4-yl)pyrimidin-4-yloxy)phenyl)urea], the IC50 in test [1], in test [2] and in test [3] was ≤ 10 µM each time.
With `COc1ccc(C(F)(F)F)cc1NC(=O)Nc1cc(Oc2cc(-c3cnn(C)c3)ncn2)ccc1F` [Example 95, 1-(2-Fluoro-5-(6-(1-methyl-1H-pyrazol-4-yl)pyrimidin-4-yloxy)phenyl)-3-(2-methoxy-5-(trifluoromethyl)phenyl)urea], the IC50 in test [1], in test [2] and in test [3] was ≤ 10 µM in each case.
As to `Cn1cc(-c2cc(Oc3cccc(NC(=O)Nc4ccc(C(F)(F)F)cc4Cl)c3)ncn2)cn1` [Example 96, 1-(2-Chloro-4-(trifluoromethyl)phenyl)-3-(3-(6-(1-methyl-1H-pyrazol-4-yl)pyrimidin-4-yloxy)phenyl)urea], the IC50 in test [1], in test [2] and in test [3] was ≤ 10 µM each time.
On to `Cn1cc(-c2cc(Oc3ccc(F)c(NC(=O)Nc4ccc(C(F)(F)F)cc4Cl)c3)ncn2)cn1` [Example 97, 1-(2-Chloro-4-(trifluoromethyl)phenyl)-3-(2-fluoro-5-(6-(1-methyl-1H-pyrazol-4-yl)pyrimidin-4-yloxy)phenyl)urea], for which the IC50 in test [1], in test [2] and in test [3] was ≤ 10 µM in each case.
For the molecule `Cn1cc(-c2nccc(Oc3cccc(NC(=O)Nc4cccc(C(F)(F)F)c4)c3)n2)cn1` [Example 98, 1-(3-(2-(1-Methyl-1H-pyrazol-4-yl)pyrimidin-4-yloxy)phenyl)-3-(3-(trifluoromethyl)phenyl)urea], the IC50 in test [1], in test [2] and in test [3] was ≤ 10 µM throughout.
Turning to `Cn1cc(-c2nccc(Oc3ccc(NC(=O)Nc4cccc(C(F)(F)F)c4)cc3)n2)cn1` [Example 99, 1-(4-(2-(1-Methyl-1H-pyrazol-4-yl)pyrimidin-4-yloxy)phenyl)-3-(3-(trifluoromethyl)phenyl)urea], the IC50 in test [1], in test [2] and in test [3] was ≤ 10 µM in each case.
With `Cn1cc(-c2cc(Oc3ccc(F)c(NC(=O)Nc4ccc(C(F)(F)F)cc4)c3)ncn2)cn1` [Example 100, 1-(2-Fluoro-5-(6-(1-methyl-1H-pyrazol-4-yl)pyrimidin-4-yloxy)phenyl)-3-(4-(trifluoromethyl)phenyl)urea], the IC50 in test [1], in test [2] and in test [3] was ≤ 10 µM in each case.
Turning to `Cn1cc(-c2cc(Oc3ccc(NC(=O)Nc4ccc(C(F)(F)F)cc4)cc3)ncn2)cn1` [Example 101, 1-(4-(6-(1-Methyl-1H-pyrazol-4-yl)pyrimidin-4-yloxy)phenyl)-3-(4-(trifluoromethyl)phenyl)urea], the IC50 in test [1] was > 10 µM; in test [2] it was ≤ 10 µM; in test [3] it was ≤ 10 µM.
As for `Cn1cc(-c2nccc(Oc3ccc(NC(=O)Nc4ccc(C(F)(F)F)cc4)cc3)n2)cn1` [Example 102, 1-(4-(2-(1-Methyl-1H-pyrazol-4-yl)pyrimidin-4-yloxy)phenyl)-3-(4-(trifluoromethyl)phenyl)urea], the IC50 in test [1], in test [2] and in test [3] was ≤ 10 µM throughout.
For the molecule `Cc1cc(NC(=O)Nc2cc(Oc3cc(-c4cnn(C)c4)ncn3)ccc2F)no1` [Example 104, 1-(2-Fluoro-5-(6-(1-methyl-1H-pyrazol-4-yl)pyrimidin-4-yloxy)phenyl)-3-(5-methylisoxazol-3-yl)urea], the IC50 in test [1], in test [2] and in test [3] was ≤ 10 µM in each case.
`Cc1cc(NC(=O)Nc2ccc(Oc3ccnc(-c4cnn(C)c4)n3)cc2)no1` [Example 105, 1-(4-(2-(1-Methyl-1H-pyrazol-4-yl)pyrimidin-4-yloxy)phenyl)-3-(5-methylisoxazol-3-yl)urea]: the IC50 in test [1] was > 10 µM; in test [2], ≤ 10 µM; in test [3] it was ≤ 10 µM.
